The source of these data is patent US20140121236A1, “Compositions and Methods for Treating Myotonic Dystrophy Type 1” (UNIVERSITY OF SOUTHERN CALIFORNIA, priority 2012, published 2014).

In assay [1] the test system is MBNL1 and MBNL2 RNA splicing in DM1 myoblasts. As to the kind of experiment: Splicing assay (RT-PCR) for RNAs from DM1 myoblasts. The conditions noted are these: 50 μM, 17 hours, RT-PCR. In kind it is cell-based, human. As to the method:
A. Total RNA was isolated from normal (SKMC) myoblasts, untreated DM1 myoblasts and DM1 myoblasts treated with 50 μM RCN-001 or 50 μM Pentamidine for 17 hours and subjected to RT-PCR analysis using the indicated primers sets for MBNL1 and MBNL2 RNAs. GAPDH RNA was amplified in parallel as an internal control. The results of one of three experiments are shown. B. The relative levels of exon inclusion was measured by densitometry and tabulated as mean % exon inclusion +/− standard deviation.
Treatment of DM1 myoblasts with RCN-001 is also sufficient to rescue abnormal RNA splicing. Two RNAs were selected that show abnormal splicing in DM1 myoblasts: MBNL1 and MBNL2. DM1 myoblast were treated with 50 μM RCN-001 for 17 hours after which RNA was isolated and splice variants were analyzed as previously described (20-22).
Splicing assays for RNAs isolated from human myoblasts. DM1 patient myoblasts was treated with 50 μM of RCN-001 or Pentamidine for 17 h as described by Warf et al, 2009. Total RNA was isolated using the RNAeasy mini kit (Qiagen Inc., USA) following manufacture's protocol. cDNA was synthesized using 5 μg of total RNA using First-Strand cDNA synthesis kit (GE Healthcare). PCR amplification was carried out using 150 ng of cDNA for 35 cycles for each target RNA. The primers used for PCR amplification are as follows—
The relative band intensities were measured using densitometry analyses and the percent of exon inclusion was calculated as [exon inclusion/(exon inclusion+exon exclusion)]×100.

In assay [2] the test system is DM1 splicing defects. The settings on record: literature reference 16 (Warf et al.); cited from earlier work.

On to `N=C(N)c1ccc(OCCCCCOc2ccc(C(=N)N)cc2)cc1` [pentamidine, reference compound], for which the “rescue of abnormal splicing of MBNL1 and MBNL2” value in assay [1] is given as “did not perform as well RCN-001”. In addition, the “rescue of DM1 splicing defects shown by others” value in assay [2] is “partially rescue DM1 splicing defects”.
